System: conscious rats
Test: Heart rate and blood pressure in conscious unrestrained rats (intravenous or oral)
Assay type: in vivo, rat
Procedure: Male Sprague-Dawley rats were anesthetized with sodium pentobarbital 50 mg/kg i.p., and indwelling catheters were surgically implanted in the carotid artery and jugular vein two days prior to each experiment. During all subsequent experiments, rats were conscious and unrestrained. The carotid artery cannula was attached to a pressure transducer and blood pressure was recorded continuously throughout each experiment using a Grass polygraph. Heart rate was derived from the blood pressure signal using a Grass tachygraph. The measured parameters were allowed from 30 to 90 minutes to stabilize before the administration of test compound.
Compound A was administered by intravenous administration via the jugular vein indwelling catheter or by oral gavage using a curved, bulbed oral dosing cannula. Food and water were available ad libitum.

[1] = 0.1 μg/kg/min intravenously for 120 minutes

## CCNC(=O)[C@H]1O[C@@H](n2cnc3c(NC4CCCC4)ncnc32)[C@H](O)[C@@H]1O [Compound A, ethyl N^6-cyclopentyladenosine-5′-uronamide]
[1]
  mean blood pressure: remained unchanged
  mean decrease in heart rate: 34%
100 μg/kg oral
  mean decrease in heart rate: 40%
Intravenous dose range 0.05 μg/kg/min to 0.1 μg/kg/min
  change in blood pressure: no change
Intravenously for 120 minutes, conscious rats
  ED50 for induction of bradycardia: 0.1 µg/kg/min
Oral dose range 30 μg/kg to 100 μg/kg
  change in blood pressure: no change

Reference: US6784165B1, “Treatment of heart rhythm disturbances with N6-substituted-5′-(N-substituted) carboxamidoadenosines” (Aderis Pharmaceuticals, Inc., priority 1999, dated 2004)
